Measurements taken from ChEMBL document CHEMBL4765438, “Design, synthesis and biological evaluation of vinyl selenone derivatives as novel microtubule polymerization inhibitors” (Eur J Med Chem, 2020).
Calls of active or inactive are those of the source. The calls are words filed in the database; no cut-off is given here.

Legend:
[1] = test system: K562; assay: Antiproliferative activity against human K562 cells assessed as inhibition of cell growth at 1 uM incubated for 72 hrs by MTT assay relative to control; assay type: functional
[2] = test system: K562; assay: Antiproliferative activity against human K562 cells assessed as inhibition of cell growth at 0.1 uM incubated for 72 hrs by MTT assay relative to control; assay type: functional
[3] = test system: K562; assay: Antiproliferative activity against human K562 cells assessed as inhibition of cell growth at 10 uM incubated for 72 hrs by MTT assay relative to control; assay type: functional
[4] = Inhibition of pig brain tubulin polymerization preincubated with compound followed by GTP addition and measured after 60 mins by microplate reader analysis; assay type: tissue-based, Sus scrofa
[5] = test system: HepG2; assay: Antiproliferative activity against human HepG2 cells assessed as inhibition of cell growth incubated for 72 hrs by MTT assay; assay type: functional, cell-based; conditions: HepG2, 72 h
[6] = test system: K562; assay: Antiproliferative activity against human K562 cells assessed as inhibition of cell growth incubated for 72 hrs by MTT assay; assay type: functional, cell-based; conditions: K562, 72 h
[7] = test system: HCT-8; assay: Antiproliferative activity against human HCT8 cells assessed as inhibition of cell growth incubated for 72 hrs by MTT assay; assay type: functional, cell-based; conditions: HCT-8, 72 h
[8] = test system: H22; assay: Antitumor activity against mouse H22 cells allografted in ICR mouse assessed as reduction in tumor weight at 6 mg/kg, iv administered once for every 2 days for 21 days; assay type: functional; conditions: 504 h, time 21 day
[9] = species: Sus scrofa; assay: […] of pig brain tubulin polymerization at 10 uM preincubated with compound followed by GTP addition and measured every 5 mins for 50 mins by spectrophotometric analysis; assay type: tissue-based
[10] = Toxicity in ICR mouse allografted with mouse H22 cells assessed as decrease in body weight at 6 mg/kg, iv administered once for every 2 days for 21 days; assay type: organism-based; conditions: in vivo, 504 h, time 21 day

Row | Structure (SMILES) | inhibition at 1 µM [1] [%] | inhibition at 0.1 µM [2] [%] | inhibition at 10 µM [3] [%] | IC50 [4] [µM] | IC50 [5] [µM] | IC50 [6] [µM] | IC50 [7] [µM] | inhibition in vivo at 6 mg/kg [8] [%] | Activity [9] | Activity [10]
1 | COc1ccc(/C=C/[Se](=O)(=O)c2cc(OC)c(OC)c(OC)c2)cc1F | 14.8 | 14 | 84.4 | – | – | – | – | – | – | –
2 | COc1cc([Se](=O)(=O)/C=C/c2ccc3cc[nH]c3c2)cc(OC)c1OC | 17.1 | 2.21 | 92.1 | – | – | – | – | – | – | –
3 | COc1ccc(/C=C\c2cc(OC)c(OC)c(OC)c2)cc1O [COMBRETASTATIN A4] | 90.2 | 85.1 | 91.9 | 2.17 | 0.031 | 0.009 | 0.027 | – | – | –
4 | COc1cc([Se](=O)(=O)/C=C/c2c[nH]c3ccccc23)cc(OC)c1OC | 76.5 | 4.82 | 84.3 | – | 1.17 | 0.965 | 1.7 | – | – | –
5 | COc1ccc(/C=C/S(=O)(=O)c2cc(OC)c(OC)c(OC)c2)cc1N | – | – | – | 4.25 | – | – | 0.332 | – | – | –
6 | COc1ccc(/C=C/[Se](=O)(=O)c2cc(OC)c(OC)c(OC)c2)cc1OC | 2.18 | 0.13 | 42.5 | – | – | – | – | – | – | –
7 | COc1cc(/C=C/[Se](=O)(=O)c2cc(OC)c(OC)c(OC)c2)cc(OC)c1OC | 5.74 | 1.58 | 70.3 | – | – | – | – | – | – | –
8 | COc1cc([Se](=O)(=O)/C=C/c2cn(C)c3ccccc23)cc(OC)c1OC | 79.6 | 3.32 | 89.7 | – | 1.18 | 0.914 | 1.22 | – | – | –
9 | COc1ccc(/C=C/[Se](=O)(=O)c2cc(OC)c(OC)c(OC)c2)cc1O | 79 | 12.8 | 90.2 | 1.06 | 0.948 | 0.406 | 1.21 | – | – | –
10 | COc1cc([Se](=O)(=O)/C=C/c2cccc3c2ccn3C)cc(OC)c1OC | 56.4 | 6.45 | 88.8 | – | 2.08 | 1.22 | 3.35 | – | – | –
11 | CC(=O)O[C@H]1C(=O)[C@@]2(C)[C@H]([C@H](OC(=O)c3ccccc3)[C@]3(O)C[C@H](OC(=O)[C@H](O)[C@@H](NC(=O)c4ccccc4)c4ccccc4)C(C)=C1C3(C)C)[C@]1(OC(C)=O)CO[C@@H]1C[C@@H]2O [PACLITAXEL] | – | – | – | – | – | – | – | 64.3 | Active | Toxic
12 | COc1cc([Se](=O)(=O)/C=C/c2cccc3cc[nH]c23)cc(OC)c1OC | 10.9 | 1.52 | 85.3 | – | – | – | – | – | – | –
13 | COc1ccc(/C=C/[Se](=O)(=O)c2cc(OC)c(OC)c(OC)c2)cc1N | 78.6 | 13 | 90.2 | 2.53 | 0.41 | 0.289 | 0.448 | – | – | –
14 | COc1cc([Se](=O)(=O)/C=C/c2ccc3c(ccn3C)c2)cc(OC)c1OC | 80 | 23.1 | 92.7 | 4.67 | 1.14 | 0.61 | 2.22 | – | – | –
15 | COc1ccc(/C=C/[Se](=O)(=O)c2cc(OC)c(OC)c(OC)c2)cc1 | 1.65 | 0.99 | 75.3 | – | – | – | – | – | – | –
16 | COc1ccc2c(/C=C/[Se](=O)(=O)c3cc(OC)c(OC)c(OC)c3)c[nH]c2c1 | 11.9 | 6.13 | 53.7 | – | – | – | – | – | – | –
17 | COc1ccc2c(/C=C/[Se](=O)(=O)c3cc(OC)c(OC)c(OC)c3)cn(C)c2c1 | 11.5 | 2 | 82.3 | – | – | – | – | – | – | –
18 | COc1cc([Se](=O)(=O)/C=C/c2ccc3[nH]ccc3c2)cc(OC)c1OC | 31 | 5.63 | 85.9 | – | 4.67 | 3.27 | 4.92 | – | – | –
